# According to patent US10195258B2, “Tape preparation of WT1 peptide cancer vaccine for transdermal administration” (NITTO DENKO CORPORATION, priority 2013, dated 2019):
# System: antigen-specific cellular immunity (IFN-γ-producing spleen cells)
# Assay: Mouse immunization test 1 (tape preparation), ELISPOT
# Format: in vivo, genetically modified mouse (HLA-A*0201 type MHC)
# Conditions: acid added to WT1 peptide tape preparation (Table 1)
# Method: Mouse immunization test was performed with the tape preparations using a model animal for immunological evaluation. Evaluation of the immunity induction level was performed by the ELISPOT method. Specifically, the hair of the back of the mouse was cut. The mouse was kept until it recovered from the skin damage due to the hair cutting. After that, a sample was applied to the back of the mouse for the predetermined time, and then removed. Then, the mouse was kept for predetermined days and the level of the antigen-specific cellular immunity was evaluated. After predetermined days from the application of the sample, the spleen was isolated and a spleen cell suspension was prepared. Spleen cells (3×10^6 cells/well) and the antigen peptide (100 μM) together with the culturing medium were placed into a well of an ELISPOT plate on which an anti-mouse IFN-γ antibody had been immobilized. The plate was cultured for 20 hours under the condition of 37° C. and 5% CO2. The number of the spots representing IFN-γ-producing cells (spot number/3×10^6 cells) was evaluated by the ELISPOT method.
# The amount of administration of the tape preparation was set to 0.7 cm^2 as described above, the number of administrations was (24 hr/week)×once, and extraction of the spleen was carried out 6 days after the administration. The mouse used for the experiment was a genetically modified mouse by which cellular immunity induction caused by HLA-A*0201 type MHC-restricted peptide can be evaluated.
# In Example 8, administration was carried out on skin that was injured with a microcutter (MICRO FEATHER No. 7330G, manufactured by Feather Safety Razor Co., Ltd.).
row,SMILES,Promotion of cellular immunity induction by acid as second cellular immunity induction promoter
1,CCCCCCCCCC(=O)O [decanoic acid],effective
2,CCCCCCCC/C=C\CCCCCCCC(=O)O [oleic acid],particularly effective
3,CC(C)CCCCCCCCCCCCCCC(=O)O [isostearic acid],particularly effective
4,CCCCCCCCCCCCCCCC(=O)O [palmitic acid],effective
5,CCCCCCCCCCCCCCCCCC(=O)O [stearic acid],effective
6,CCCCCCCC(=O)O [octanoic acid],effective
7,CCCCCCCCCCCC(=O)O [lauric acid],particularly effective
8,CCCCCCCCCCCCCC(=O)O [myristic acid],particularly effective
9,CC(O)C(=O)O (stereo not drawn) [lactic acid],particularly effective
